Structures can show the parent of a compound that is named as a salt.
Columns and labels:
[1] = test system: myostatin mRNA; test: Myostatin mRNA expression by qRT-PCR in C2C12 cells, corrected with beta-actin; type: cell-based, mouse; settings: for inhibition of myostatin mRNA expression: 0.1 mM and 1 mM in medium without L-leucine
Source text: […] After one day, the mRNA expression level of myostatin was identified using qRT-PCR, and the myostatin mRNA expression value was corrected using the expression value of beta-actin.

[2] = test system: myostatin promoter; test: Myostatin promoter activity, dual luciferase assay in C2C12 cells transfected with pGL4.15-MSTN; type: cell-based, mouse; settings: for inhibition of myostatin promoter activity: 0.1 mM and 1 mM in medium without L-leucine; for inhibition of myostatin promoter activity / decrease in myostatin promoter activity compared to L-leucine: C2C12; for decrease in myostatin promoter activity compared to L-leucine: 1 mM in medium without L-leucine
Experimental: After seeding 1×10^5 cells of mouse skeletal muscle cells C2C12 (ATCC, US) in a 12-well culture plate, on the next day, pGL4.15 empty vector and pGL4.15-MSTN vector containing myostatin promoter were transfected using Lipofectamine 2000 for 4 hours. […] After one day, a dual luciferase assay kit (Promega Inc.) was used to measure the promoter activity of myostatin.

[3] = test system: mouse skeletal muscle cells C2C12; test: Degree of differentiation of C2C12 cells and number of differentiated intracellular nuclei; type: cell-based; settings: 1 mM in differentiation medium, C2C12 grown without L-leucine; for cells in which differentiation occurs, compared to L-leucine: days 1, 6, 9
Experimental: (§1) To observe how L-leucine and D-Leu-OMe-HCl act on the differentiation of mouse skeletal muscle cells C2C12, a differentiation medium containing 1 mM L-leucine and D-Leu-OMe-HCl was given to mouse skeletal muscle cells C2C12 continuously grown in a medium without L-leucine, respectively. On days 1, 6, and 9, the degree of differentiation of mouse skeletal muscle cells and the number of nuclei present in the differentiated cells were measured (see FIG. 13).
as §1, with “D-Leu-BOC—H2O” for “D-Leu-OMe-HCl”, “15).” for “13).”

[4] = 0.1 mM in medium without L-leucine, C2C12, after one day
[5] = 1 mM in medium without L-leucine, C2C12

Compound	inhibition of myostatin mRNA expression ([1]; C2C12)	inhibition of myostatin promoter activity [2]	expression of myostatin mRNA [1, 4]	myostatin promoter activity [2, 4]	decrease in myostatin mRNA expression level compared to L-leucine ([1]; 0.1 mM in medium without L-leucine, C2C12)	decrease in myostatin mRNA expression level compared to L-leucine [1, 5]	cells containing 6 or more nuclei [3]	cells in which differentiation occurs, compared to L-leucine [3]	decrease in myostatin promoter activity compared to L-leucine [2]	decrease of myostatin mRNA expression level relative to L-leucine [1, 5]
CC(C)C[C@H](N)C(=O)O [L-leucine, reference compound]	inhibited	inhibited	–	–	–	–	–	–	–	–
CC(C)C[C@H](N)C(=O)OC(C)(C)C.Cl [L-Leu-OtBu-HCl]	–	–	decreased	significantly reduced	–	–	–	–	–	–
COC(=O)C(N)CC(C)C [D-Leu-OMe-HCl]	inhibited	inhibited	–	–	about 1.97 times	about 3.68 times	observed statistically significantly	relatively large number of cells in which differentiation occurs	about 1.96 times	–
CC(C)CC(NC(=O)OC(C)(C)C)C(=O)O [D-Leu-BOC—H2O]	inhibited	inhibited	–	–	–	–	observed statistically significantly	relatively large number of cells in which differentiation occurs	about 1.89 times	similarly to L-leucine

— patent US20220354817A1, “PHARMACEUTICAL COMPOSITION FOR PREVENTING OR TREATING SARCOPENIA CONTAINING NON-NATURAL AMINO ACID DERIVATIVE” (MYO-TEC-SCI, priority 2019, published 2022)
